Assay results reported in patent US10597735B2, “Antibacterial and plasmid elimination agents” (priority 2006, dated 2020).
Converted amounts (≈) assume the structure as drawn. “Also recorded” adds a separate entry of the source. Read-outs that look alike come from different tables or passages of the source. Where a SMILES comes first, the peptide text is derived from it.

What was measured:
ClpX = ClpX (Escherichia coli, UniProt P0A6H1); test: ClpX ATPase assay; format: biochemical, E. coli
Description: ATPase and peptidase assays: ClpX ATPase activity was measured by monitoring the increase in phosphate using a ternary hetero polyacid assay (Chen et al. 2003, Tsinghua Science and Technology 8: 422-427). 1 μM ClpX was incubated with or without 6 μM GFP-tag and varying concentrations of IXP1 in buffer P (4 mM ATP, 50 mM tris-HCl (pH 7.5), 100 mM NaCl, 100 mM KCl, 10 mM MgCl2, 2 mM DTT, and 10% glycerol) at 37° C. At each time point 10 μl was removed from the reaction, added to 265 μl 0.88 M nitric acid for 2 min, and 225 μl color developing solution (44.4 mM bismuth nitrate, 31.1 mM ammonium molybdate, 0.11% ascorbic acid) was added and the absorbance at 700 nm was determined. The rate of ATP hydrolysis was determined from plots of phosphate accumulation versus time.

ClpXP [1] = biological target: T1, ClpXP (Escherichia coli, UniProt P0A6G7+P0A6H1); test: In vitro proteolysis of GFP-tag by ClpXP without SspB (Example 3); format: biochemical, E. coli; conditions: no SspB
T1 sequence (P0A6G7 15-207): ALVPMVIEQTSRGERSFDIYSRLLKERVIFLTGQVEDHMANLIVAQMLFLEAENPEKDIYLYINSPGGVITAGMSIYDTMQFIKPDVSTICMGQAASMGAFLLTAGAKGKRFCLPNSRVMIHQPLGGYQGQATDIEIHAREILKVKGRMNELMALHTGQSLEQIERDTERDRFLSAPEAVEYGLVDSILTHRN
T1 sequence (P0A6H1 whole entry): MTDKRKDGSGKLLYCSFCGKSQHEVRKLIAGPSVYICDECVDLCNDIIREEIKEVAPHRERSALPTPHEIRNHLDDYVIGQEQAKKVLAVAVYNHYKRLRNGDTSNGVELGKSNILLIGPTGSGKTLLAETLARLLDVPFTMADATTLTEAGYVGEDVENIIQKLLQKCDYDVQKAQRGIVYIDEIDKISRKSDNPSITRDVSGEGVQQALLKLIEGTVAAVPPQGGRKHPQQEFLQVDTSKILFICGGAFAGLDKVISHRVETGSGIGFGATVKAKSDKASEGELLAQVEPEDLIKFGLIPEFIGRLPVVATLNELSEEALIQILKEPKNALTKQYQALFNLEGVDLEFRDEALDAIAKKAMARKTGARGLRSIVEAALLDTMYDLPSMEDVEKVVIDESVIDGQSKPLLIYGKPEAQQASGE
Description: (§1) In vitro proteolysis assays: Proteolysis of GFP-tag was performed using a continuous fluorescence assay essentially as previously described (Levchenko et al. 2000, Science 289: 2354-2356). Briefly, loss of GFP fluorescence was monitored at 507 nm after excitation at 395 nm at 30° C. using a Hitachi F-2000 Fluorescence Spectrophotometer in buffer R (25 mM HEPES-KOH (pH 7.6), 5 mM MgCl2, 50 mM KCl, 0.032% NP-40, 10% glycerol, and an ATP regeneration system containing 4 mM ATP (pH 7), 16 mM creatine phosphate and 0.32 mg/ml creatine kinase). Typically, reactions contained […], 0.3 μM ClpP14, and equimolar concentrations (0.2 μM-2.0 μM) GFP-tag and SspB. Degradation of GFP-tag protein was confirmed by SDS-PAGE assays. To examine inhibition of GFP-tag proteolysis, peptides were incubated with ClpXP in reaction buffer for 5 min prior to the addition of GFP-tag. Plots of fluorescence versus time were fit with a single exponential function to determine the initial rate of proteolysis. Kinetic parameters were estimated using Eadie-Hofstee plots.
In the in vitro and in vivo proteolysis reactions above, the proteolytic adaptor SspB binds GFP-tag and tethers it to ClpXP (Levchenko et al. 2000, Science 289: 2354-2356). In principle, IXP1 could act on the GFP-tag.cndot.ClpXP interaction or the SspB.cndot.ClpXP interaction. […]

ClpXP [2] = biological target: T1, ClpXP; test: Peptidase activity of ClpXP against IXP1, reverse-phase HPLC; format: biochemical, E. coli; conditions: 60 min, no GFP-tag, HPLC peak area
Description: Peptidase activity against IXP1 was assayed by incubating 200 μM IXP1 with 0.1 μM ClpX6, 0.3 μM ClpP14 and the ATP regeneration system in buffer R at 37° C. Sample were taken after 0, 5, and 60 min, and
separated by reverse-phase HPLC using a Varian Microsorb-MV C18 column developed in a gradient from 0.1% trifluoroacetic acid in water to 0.1% trifluoroacetic acid in acetonitrile. UV absorbance at 280 nm was monitored and the peak corresponding to the IXP1 cyclic peptide was determined by comparison to reactions containing only cyclic IXP1 or linear IXP1. The loss of cyclic IXP1 was determined by integrating the area under the cyclic IXP1 peak.

ClpXP [3] = biological target: T1, ClpXP; test: biochemical; format: biochemical, E. coli; conditions: for mode of inhibition of GFP-tag degradation: SspB present; for inhibition of ClpXP proteolysis of GFP-tag in vitro: at the concentrations tested
Description: as §1
Proteolysis of GFP-tag in the presence of ClpXP and SspB was monitored by loss of GFP fluorescence in a continuous fluorometric assay. In the absence of cyclic peptide, GFP-tag was degraded with kinetic parameters kcat=[…], KM=0.74±0.04 μM. […] Likewise, no degradation was observed when ClpX or ClpP were omitted from the reaction.

[4] = tested on: GFP-tag degradation by ClpXP; test: In vivo screen: GFP-tag reporter fluorescence in E. coli producing the cyclic peptide from a SICLOPPS plasmid, epifluorescence microscopy (Example 3); format: cell-based
Description: Screen for inhibitors of the tmRNA pathway: E. coli BW7786 cells containing the GFP-tag reporter and the SICLOPPS library were grown in LB broth with 30 μg/ml chloramphenicol, 100 μg/ml ampicillin, and 0.0002% arabinose at 37° C. to OD600=0.3. IPTG was added to a final concentration of 1 mM, and the culture was grown for 3 hours. Cells were sorted by fluorescence activated cell sorting (FACS) using a Beckman Coulter Elite cell sorter with Autoclone to isolate cells with GFP fluorescence, and selected cells were deposited on agar plates for clonal growth. Cells from each colony were grown in liquid culture as described above and examined by epifluorescence microscopy. The fluorescence intensity and the number of cells with fluorescence above background were scored using ImagePro software (MediaCybernetics). SICLOPPS plasmid DNA was prepared from selected clones and the region encoding the cyclic peptide was sequenced. Peptide sequences were obtained from conceptual translation of the DNA sequences.
Approximately 0.014% of the population had fluorescence over the background level, and 96 of these cells were isolated for clonal growth and characterization. To eliminate any clones that resulted from sorting errors or spurious accumulation of GFP, cells from each colony were cultured and examined by epifluorescence microscopy.

GFP-tag reporter = GFP-tag reporter fluorescence in cells expressing SGW+5 SICLOPPS clones, epifluorescence microscopy (Example 1); format: cell-based, E. coli
From the text: Clonal populations are obtained by spotting the cells with high fluorescence on agar plates, and cells from each colony are screened by epi-fluorescence microscopy for fluorescence intensity. SICLOPPS plasmids from clones that pass the microscopy screen were isolated and sequenced to identify the cyclic peptide that is produced in that clone.
A SICLOPPS library was constructed in which the cyclic peptide contains three constant amino acids, SGW, followed by five random amino acids encoded by NNS codons. This library was introduced into cells containing the GFP-tag reporter, and the expression of the reporter and cyclic peptide were induced. Approximately 690,000 cells were sorted by FACS and the brightest 50 were isolated. These 50 clones were grown individually in fresh medium, the expression of reporter and cyclic peptide was induced, and the culture was observed by epifluorescence microscopy. Two clones produced cultures in which nearly 100% of the cells were highly fluorescent.

C. crescentus [5] = format: cell-based, Caulobacter crescentus
Description: Antibacterial activity assays: To measure the effects of peptides on bacterial growth, cultures of C. crescentus were diluted to OD600=0.001, peptide was added at various concentrations, the cultures were incubated at 30° C. for 14 h, and the MIC was determined as the lowest concentration of peptide that prevented growth. To determine the MBC, each culture was diluted 1:100 in PYE and 10 μl of the diluted culture was spread onto PYE agar plates, incubated at 30° C. overnight, and the number of colonies on each plate was counted. The MBC was assigned as the concentration of peptide that reduced the number of colonies by 99.9% compared to cultures with no inhibitor.

ClpP = ClpP (Escherichia coli, UniProt P0A6G7); test: ClpP peptidase assay with Suc-Leu-Tyr-AMC; format: biochemical, E. coli; conditions: Suc-Leu-Tyr-AMC substrate
Chain of ClpP (P0A6G7 15-207): as the sequence (P0A6G7 15-207) above
Description: ClpP peptidase activity was measured using the fluorogenic peptide Suc-Leu-Tyr-AMC. 0.1 μM ClpP was incubated with 0.5-1.0 mM Suc-Leu-Tyr-AMC and varying concentrations of IXP1 in buffer P at 37° C. and monitoring the fluorescence of AMC (excitation at 353 nm, emission at 442 nm).

ClpXP [6] = biological target: T1, ClpXP; test: ClpXP degradation of λO protein (Example 1); format: biochemical, E. coli; conditions: concentrations near or 10-fold above the KI for GFP-tag
Description: The differing effects of SspB on inhibition indicate that inhibitors for two different steps in the ClpXP degradation pathway were obtained from the genetic screen. To confirm the different specificities of these two inhibitors, the effects on ClpXP degradation of a substrate unrelated to tmRNA tagged proteins was assayed. Because ClpXP can recognize at least 5 different protein sequences as substrate determinants, it has been proposed that there are several substrate binding sites on the protease. Inhibitors that block one site of interaction are expected to affect degradation of only the substrates that bind at that site. Conversely, inhibitors that block catalysis or obstruct a binding site required by all substrates should affect degradation of any ClpXP substrate.

ClpXP [7] = biological target: T1, ClpXP; test: ClpXP degradation of GFP-tag in the absence of SspB (Examples 1-2); format: biochemical, E. coli; conditions: no SspB
Description: ClpXP Proteolysis: PD buffer contained 25 mM HEPES-KOH (pH 7.6), 5 mM KCl, 5 mM MgCl2, 0.032% NP-40, 5 mM ATP, and 10% glycerol. The ATP regenerating system consisted of 8 mM creatine phosphate and 0.16 mg/ml creatine kinase. Inhibition experiments were performed using a Hitachi F-2000 Fluorescence Spectrophotometer. The rate of GFP-ssrA degradation was monitored at 30° C. for 5 minutes by the loss of fluorescence (excitation 488 nm; emission 507 nm). Competition experiments with increasing concentrations of peptide were performed using GFP-ssrA (0.2 μM), ClpX6 (0.3 ArM), ClpP14 (0.8 μM), and SspB2 (0.3 μM) in PD buffer plus 200 mM KCl and ATP regenerating system. Curve fitting for the competitive inhibition assays were performed using the Scientist program (MicroMath Scientific Software, Inc.).
A priori, there are several steps in the degradation pathway that could be inhibited by the selected cyclic peptides: binding of the substrate-SspB complex to ClpXP, ATPase activity of ClpX, and hydrolysis of the peptide bond by ClpP. Molecules that block the binding of substrate to SspB should not be inhibitors of proteolysis by ClpXP, because ClpXP will degrade tmRNA-tagged substrates in the absence of SspB. To determine if the inhibitors act through SspB, the kinetic assays were repeated in the absence of this proteolytic adaptor.

C. crescentus [8] = format: cell-based, Caulobacter crescentus; remark: listed apart in the source
Description: Antibacterial activity: The peptides recovered from the selection were tested for antibacterial activity by incubating a 1:1,000 diluted saturated culture with the peptide overnight at room temperature. For each peptide a series of concentrations were tested. The mix was then plated, and the colonies were counted after a period incubation at 30° for C. crescentus or 37° C. for B. subtilis. For C. crescentus, PYE liquid media were incubated overnight at 30° C. at 250 rpm, and PYE plates were incubated for 3 days at 30° C. For B. subtilis, LB liquid media and plates were incubated overnight at 37° C. […]
Antibacterial activity of cyclic peptide inhibitors: Because ClpXP is essential in C. crescentus, we examined whether the inhibitory peptides have any effect when added exogenously to growing cultures. […] ClpXP is not essential in Bacillus subtilis, but mutants lacking ClpXP activity have growth and sporulation defects. […] No killing of E. coli or the related γ-proteobacteria Shigella flexneri and Vibrio cholera was observed. It remains to be determined if the selected cyclic peptides are effective against pathogenic bacterial that require the tmRNA-ClpXP pathway.

Chain of ClpX (P0A6H1 whole entry): as the sequence (P0A6H1 whole entry) above

SMILES | ClpX ATPase activity with GFP-tag included (ClpX; with GFP-tag) | rate of ClpX ATP hydrolysis (ClpX; without GFP-tag, up to 200 μM IXP1) | effect on GFP-tag degradation by ClpXP in the absence of SspB (ClpXP [1]) | amount of cyclic peptide after incubation with ClpXP (ClpXP [2]) | mode of inhibition of GFP-tag degradation (ClpXP [3]) | inhibition of ClpXP proteolysis of GFP-tag in vitro (ClpXP [3]) | cell morphology ([4]; compared with filamentous ΔclpX strain) | GFP-tag fluorescence / inhibition in vivo ([4]; compared with ΔclpX strain) | average fluorescent intensity relative to cultures expressing ICP1 or ICP2 (GFP-tag reporter) | cells highly fluorescent (GFP-tag reporter; induced culture) | MBC (C. crescentus [5]) | MIC (C. crescentus [5]) | decrease of ClpP peptidase activity (ClpP) | effect on degradation of λO protein by ClpXP (ClpXP [6]) | inhibition of GFP-tag degradation by ClpXP in the absence of SspB (ClpXP [7]) | MIC (C. crescentus [8])
N=C(N)NCCC[C@@H]1NC(=O)CNC(=O)[C@H](Cc2ccc(O)cc2)NC(=O)[C@H](Cc2c[nH]c3ccccc23)NC(=O)CNC(=O)[C@H](CO)NC(=O)[C@H](Cc2c[nH]cn2)NC(=O)[C@H](CCCNC(=N)N)NC1=O [IXP1, SGWYGRRH] (HELM PEPTIDE1{G.R.R.H.S.G.W.Y}$PEPTIDE1,PEPTIDE1,1:R1-8:R2$$$V2.0) | no effect | not inhibited | still inhibited | did not change; also recorded: unchanged | uncompetitive inhibition | reduced the rate | slightly filamentous | indistinguishable from the ΔclpX strain; also recorded: fluorescent cells | more than twice | ~100% | 279 ± 23 µM (≈ 279 µg/mL) | 219 ± 42 µM (≈ 219 µg/mL) | less than 2% | – | – | –
CC(C)C[C@@H]1NC(=O)[C@@H]2CCCN2C(=O)[C@H](CC(C)C)NC(=O)[C@H](C(C)C)NC(=O)CNC(=O)[C@H](CCCCN)NC(=O)[C@H](CO)NC(=O)CNC(=O)[C@H](CO)NC1=O [ICP1, SGSKGVLPL] (HELM PEPTIDE1{G.S.K.G.V.L.P.L.S}$PEPTIDE1,PEPTIDE1,1:R1-9:R2$$$V2.0) | – | – | – | – | competitive inhibitors | inhibited | – | – | – | – | – | – | – | inhibited | inhibited | 62.2 µM (≈ 52.2 µg/mL)
